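Five concentrations, 48 hours, 96-well plates. GI50 = concentration required for 50% inhibition of growth. TGI denotes the concentration required for complete inhibition of growth.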
Assays:
Experiment in all cases: NCI-60 cell line screen, 48 h
TK-10 renal = system: TK-10 renal
PC-3 prostate = system: PC-3 prostate
EKVX NSCLC = system: EKVX NSCLC
CAKI-1 renal = system: CAKI-1 renal
DU-145 prostate = system: DU-145 prostate
HT29 colon = system: HT29 colon
HOP-62 NSCLC = system: HOP-62 NSCLC
KM12 colon = system: KM12 colon
NCI-H226 lung = system: NCI-H226 lung
BT-549 breast = system: BT-549 breast

Row | SMILES | GI50 (TK-10 renal) [µM] | TGI (TK-10 renal) [µM] | GI50 (PC-3 prostate) [µM] | TGI (PC-3 prostate) [µM] | GI50 (EKVX NSCLC) [µM] | TGI (EKVX NSCLC) [µM] | GI50 (CAKI-1 renal) [µM] | TGI (CAKI-1 renal) [µM] | GI50 (DU-145 prostate) [µM] | TGI (DU-145 prostate) [µM] | GI50 (HT29 colon) [µM] | TGI (HT29 colon) [µM] | GI50 (HOP-62 NSCLC) [µM] | TGI (HOP-62 NSCLC) [µM] | GI50 (KM12 colon) [µM] | TGI (KM12 colon) [µM] | GI50 (NCI-H226 lung) [µM] | TGI (NCI-H226 lung) [µM] | GI50 (BT-549 breast) [µM] | TGI (BT-549 breast) [µM]
1 | COc1ccc(-n2cc(-c3cc(OC)c(OC)c(OC)c3)[nH]c2=S)cc1Cl | 17.2 | 66.7 | 54.6 | > 100 | 37.3 | > 100 | 4.86 | 33.7 | 35.7 | > 100 | > 100 | > 100 | 22.1 | 52.8 | > 100 | > 100 | 27.1 | > 100 | 10.3 | 31.3
2 | Oc1ccc(Oc2cnc3cc(Cl)ccc3n2)cc1 | > 100 | > 100 | 23.6 | > 100 | 13.2 | 74.4 | 21.8 | 68.2 | 42.4 | > 100 | 51.7 | > 100 | > 100 | > 100 | 13.4 | > 100 | 55.4 | > 100 | 20.9 | > 100
3 | O=C(Cn1c(C(=O)c2ccc(Cl)cc2)nc(-c2ccccc2)c1-c1ccccc1)c1ccc(Cl)cc1 | > 100 | > 100 | > 100 | > 100 | > 100 | > 100 | > 100 | > 100 | > 100 | > 100 | > 100 | > 100 | > 100 | > 100 | > 100 | > 100 | > 100 | > 100 | > 100 | > 100
4 | CC(C)C[CH2][Ge]([CH2]CC(C)C)([CH2]CC(C)C)[CH2]CC(C)C | > 100 | > 100 | > 100 | > 100 | > 100 | > 100 | > 100 | > 100 | > 100 | > 100 | > 100 | > 100 | > 100 | > 100 | > 100 | > 100 | > 100 | > 100 | > 100 | > 100
5 | O=c1c2c(=NCCN3CCCC3)cc3c(=O)n(CCCN4CCOCC4)c(=O)c4ccc(c(O)n1CCCN1CCOCC1)c2c4-3 | 0.195 | 1.62 | 0.0919 | 0.638 | 0.153 | 0.427 | 0.218 | 1.41 | 0.088 | 1.67 | < 0.0181 | 1.04 | 0.0577 | 0.832 | 0.131 | 1.22 | 0.155 | 0.83 | 0.917 | 2.99
6 | O=C1/C(=C/c2ccc(Cl)cc2)CN(C(=O)CCN2CCC(=NO)CC2)C/C1=C\c1ccc(Cl)cc1 | 1.46 | 2.93 | 0.481 | 1.57 | 1.62 | 3.45 | 0.649 | 1.85 | 1.28 | 2.6 | 0.338 | 1.31 | 0.894 | 2.41 | 0.388 | 0.935 | 1.35 | 2.75 | 1.47 | 2.85
7 | COc1cc(OC)c(F)c(COc2cnc(Nc3cnn(CCO)c3)nc2)c1F | 1.01 | > 27.9 | 1.68 | > 100 | 1.94 | > 100 | 0.394 | 2.87 | 2.15 | > 100 | 0.36 | 4.31 | 0.423 | 4.58 | 0.431 | 7.23 | 0.343 | > 23.9 | 0.177 | > 100
8 | COc1ccc2c(c1)C(=O)c1c-2c(N2CCN(C(=O)CNCCN(C)C)CC2)nc2ccccc12 | 4.15 | 17.8 | 3.48 | 15.1 | 3.87 | 15.7 | 3.86 | 17.6 | 3.32 | 13.3 | 0.362 | 1.25 | 1.86 | 4.18 | 1.83 | 4.38 | 4.11 | 18 | 1.75 | 3.43
9 | COc1ccc2c(c1)[nH]c(=O)c1c3cc(OC)c(OC)cc3cn21 | 0.386 | 17.3 | < 0.01 | 1.6 | 0.0312 | 18.9 | < 0.01 | < 0.01 | < 0.01 | 0.0594 | < 0.01 |  | 0.0936 | 21 | < 0.01 | 0.292 | 0.0701 | 24.4 | < 0.024 | 0.861
